{"source": "patent US20070183976A1", "about": "“Composition for ultrasound therapy and pharmaceutical liquid composition containing the same” (IMARX THERAPEUTICS, INC., priority 2006, published 2007)", "tested_on": "artificial thrombosis", "assay": "Fibrinolysis of artificial thrombosis (Chandler's method) with ultrasonic catheter", "assay_type": "biochemical, human", "details": "average of two tests; for time for achieving 20% fibrinolysis: FIG. 4, blood from one person", "experimental": "An artificial thrombosis was formed by Chandler's method. A sample of blood (1 ml) collected from a healthy person was entered into a flexible tube (inside diameter 3 mm, length 265 mm) and calcium chloride was added. The tube was shaped like a loop and was rotated at 12 r.p.m. for 20 minutes to give an artificial thrombosis model.\nA ceramic ultrasonic element (width 2 mm, length 5 mm, thickness 1 mm) was inserted into the tip of a catheter (diameter 2 mm), and an oscillating element was connected to an oscillator provided outside with a fine connector passed through the catheter. A fine tube for pouring a test solution was provided at an opening opposite to the opening of the catheter end.\nThe artificial thrombosis prepared as described above was added to a test tube together with blood, and the ultrasonic catheter was inserted into the test tube so that the end of the catheter was set close to the portion of the artificial thrombosis (at a distance of about 5 mm). To the test tube was added a mixture of urokinase and a booster prepared as in Example 1 at a rate of 1 ml per minute, wherein urokinase (concentration 1200 Ill/ml) and the booster were mixed immediately before pouring at a mixing ratio of 1:1 by mass. The mixture was refluxed while keeping the volume of the test solution at a constant level by removing excess volume of the solution by suction.\nThe mixture was exposed to the ultrasound at a frequency of 170 KHz to by a pulse method (exposure for 2 seconds followed by termination of exposure for 4 seconds) for 2 minutes. Total exposure time was 40 seconds). After the exposure, the ultrasonic catheter was removed from the test tube, and the mixture was incubated at 37° C. for between 5 and 120 minutes, washed with a physiological saline solution several times and dried overnight. Thereafter, the dried mixture was weighed. […]\nThe rate of fibrinolysis was calculated by the following equation: Fibrinolysis rate (%)=(A−B)/A×100, wherein • A is the weight of thrombosis in control; and • B is the weight of thrombosis treated. […]", "data": [{"substance": "urokinase", "values": [{"measurement": "time for achieving 20% fibrinolysis", "setting": "with exposure of ultrasound 170 KHz pulsed, 40 s total", "result": 30, "unit": "min"}, {"measurement": "time for achieving 20% fibrinolysis", "setting": "without exposure of ultrasound, urokinase 1200 IU/ml", "result": "about 45 minutes"}, {"measurement": "treatment time at which 50% fibrinolysis was achieved", "setting": "FIG. 5, with exposure of ultrasound, energy reduced by 15%, blood from another person", "result": 60, "unit": "min"}]}]}
